From ChEMBL document CHEMBL5550194, “Design and synthesis of phosphoryl-substituted steroidal pyridazines (Pho-STPYRs) as potent estrogen receptor alpha inhibitors: targeted treatment of hormone-dependent breast cancer cells” (RSC Med Chem, 2024) come the findings set out here.

Calls of active or inactive are those of the source. The calls are words filed in the database; no cut-off is given here.

The test system of series [1] is MDA-MB-231. In words: Antiproliferative activity against estrogen-independent human MDA-MB-231 cells assessed as inhibition of cell growth by MTT assay. The series is classed as functional, cell-based.
For series [2], the system named is MCF7. In words: Antiproliferative activity against estrogen-responsive human MCF7 cells assessed as inhibition of cell growth by MTT assay. The series is classed as functional, cell-based. In general terms: Tetrazolium assays rely on reduction of a dye to a coloured formazan, in cell work by metabolically active cells.
In series [3] the target is T1, Cytochrome P450 7B1 (Homo sapiens, UniProt O75881).
T1 sequence (O75881 whole entry): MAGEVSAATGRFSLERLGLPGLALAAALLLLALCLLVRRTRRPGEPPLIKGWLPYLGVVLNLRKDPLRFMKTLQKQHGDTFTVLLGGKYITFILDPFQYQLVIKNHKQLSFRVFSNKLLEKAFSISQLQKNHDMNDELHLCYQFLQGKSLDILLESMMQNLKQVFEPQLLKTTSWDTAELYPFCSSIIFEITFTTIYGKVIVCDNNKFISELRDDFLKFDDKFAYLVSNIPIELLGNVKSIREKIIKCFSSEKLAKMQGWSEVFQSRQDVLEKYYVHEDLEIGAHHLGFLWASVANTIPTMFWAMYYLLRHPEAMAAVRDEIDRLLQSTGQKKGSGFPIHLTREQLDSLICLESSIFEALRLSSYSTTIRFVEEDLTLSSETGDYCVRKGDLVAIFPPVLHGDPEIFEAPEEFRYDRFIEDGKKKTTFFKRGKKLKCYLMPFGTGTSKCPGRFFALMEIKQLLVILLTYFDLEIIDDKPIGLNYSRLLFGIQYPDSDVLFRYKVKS
In words: Binding affinity to recombinant human CYP7B1 assessed as substrate-type binding by measuring dissociation constant by spectrophotometric titration method. The class given is ADME.

Series [4] has as its system MCF7. In words: Antiproliferative activity against human MCF7 cells assessed as inhibition of cell growth incubated for 72 hrs by MTT assay. The series is classed as functional, cell-based. To be noted: MCF7, 72 h.
The subject of series [5] is MDA-MB-231. The experiment in a line: Antiproliferative activity against human MDA-MB-231 cells assessed as inhibition of cell growth incubated for 72 hrs by MTT assay. The series is classed as functional, cell-based. To be noted: MDA-MB-231, 72 h.
In series [6] the target is T2, Cytochrome P450 7A1 (Homo sapiens, UniProt P22680). In words: Binding affinity to recombinant human CYP7A1 assessed as substrate-type binding by measuring dissociation constant by spectrophotometric titration method. The series is classed as ADME.
T2 sequence (P22680 whole entry): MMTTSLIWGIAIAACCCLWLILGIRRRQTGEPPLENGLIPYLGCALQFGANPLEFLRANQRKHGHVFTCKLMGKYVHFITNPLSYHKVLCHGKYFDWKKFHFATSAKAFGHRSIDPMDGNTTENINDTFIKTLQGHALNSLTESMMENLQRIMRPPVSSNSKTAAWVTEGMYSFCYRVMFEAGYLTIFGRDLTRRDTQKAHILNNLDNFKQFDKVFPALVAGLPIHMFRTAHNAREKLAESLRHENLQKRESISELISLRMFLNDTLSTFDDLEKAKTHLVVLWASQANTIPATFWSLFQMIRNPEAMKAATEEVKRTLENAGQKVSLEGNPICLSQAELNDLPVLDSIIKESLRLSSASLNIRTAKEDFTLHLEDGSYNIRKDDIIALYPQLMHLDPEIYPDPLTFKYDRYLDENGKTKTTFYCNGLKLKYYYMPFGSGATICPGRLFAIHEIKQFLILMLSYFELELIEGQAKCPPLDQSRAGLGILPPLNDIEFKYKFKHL
Series [7] deals with MCF7. The experiment in a line: Synergistic antiproliferative activity against human MCF7 cells assessed as reduction in cell viability at 2.4 uM incubated for 72 hrs in presence of AKT inhibitor IV 6-(2-benzothiazolyl)-1-ethyl-2-[2-(methylphenylamino)ethenyl]-3-phenyl-1H-benzimidazolium mono iodide by MTT assay. The class given is functional, cell-based.
The target of series [8] is T3, Aromatase (Homo sapiens, UniProt P11511).
T3 sequence (P11511 whole entry): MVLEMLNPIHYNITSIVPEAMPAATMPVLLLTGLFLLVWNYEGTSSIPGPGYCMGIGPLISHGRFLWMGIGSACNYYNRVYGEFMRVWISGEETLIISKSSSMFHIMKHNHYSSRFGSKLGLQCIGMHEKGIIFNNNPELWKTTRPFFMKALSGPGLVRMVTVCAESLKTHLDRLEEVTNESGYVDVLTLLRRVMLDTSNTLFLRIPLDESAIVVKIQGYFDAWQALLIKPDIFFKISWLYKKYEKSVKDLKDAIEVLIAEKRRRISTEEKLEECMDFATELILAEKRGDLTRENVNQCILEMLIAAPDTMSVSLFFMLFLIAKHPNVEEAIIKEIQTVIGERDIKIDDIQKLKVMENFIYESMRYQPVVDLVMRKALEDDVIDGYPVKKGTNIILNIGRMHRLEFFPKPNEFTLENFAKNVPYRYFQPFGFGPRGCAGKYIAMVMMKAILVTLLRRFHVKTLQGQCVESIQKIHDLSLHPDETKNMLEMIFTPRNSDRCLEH
In words: Binding affinity to recombinant human CYP19A1 by spectrophotometric titration method. To be noted: recombinant enzyme. The series is classed as ADME.

For series [9], the system named is MCF7. The experiment in a line: Effect on E-cadherin protein expression in human MCF7 cells at 1.7 to 15 uM measured after 48 hrs by immunoblot analysis. The class given is functional, cell-based. To be noted: dose 1.7-15 µM.
In series [10] the test system is MCF7. The experiment in a line: Downregulation of PCNA protein level in human MCF7 cells at 15 uM measured after 48 hrs by immunoblot analysis. The series is classed as functional, cell-based. For orientation: A western blot detects proteins with antibodies after separation by electrophoresis.
Series [11] deals with MCF7. The experiment in a line: Downregulation of CDK4 protein expression in human MCF7 cells at 1.7 to 15 uM measured after 48 hrs by immunoblot analysis. To be noted: dose 1.7-15 µM. The class given is functional, cell-based.
For series [12], the target named is T4, Steroid 17-alpha-hydroxylase/17,20 lyase (Homo sapiens, UniProt P05093).
T4 sequence (P05093 whole entry): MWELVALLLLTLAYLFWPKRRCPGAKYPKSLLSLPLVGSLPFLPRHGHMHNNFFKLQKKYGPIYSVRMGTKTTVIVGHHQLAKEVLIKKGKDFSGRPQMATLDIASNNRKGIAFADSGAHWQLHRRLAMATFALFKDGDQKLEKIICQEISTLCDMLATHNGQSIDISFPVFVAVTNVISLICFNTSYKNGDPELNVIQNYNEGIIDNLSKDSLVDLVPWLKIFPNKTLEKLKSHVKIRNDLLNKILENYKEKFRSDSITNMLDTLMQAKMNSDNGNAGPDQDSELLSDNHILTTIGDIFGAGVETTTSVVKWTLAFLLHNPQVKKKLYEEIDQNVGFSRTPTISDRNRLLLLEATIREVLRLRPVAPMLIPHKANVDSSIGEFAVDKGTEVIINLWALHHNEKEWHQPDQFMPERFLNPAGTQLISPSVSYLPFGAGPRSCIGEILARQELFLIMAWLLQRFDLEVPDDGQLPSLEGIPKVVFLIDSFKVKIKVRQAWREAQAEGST
In words: Binding affinity to recombinant human CYP17A1 by spectrophotometric titration method. The series is classed as ADME. To be noted: recombinant enzyme.

Series [13] can be described thus: Selectivity index, ratio of IC50 for human THP-1 cells to IC50 for human MCF7 cells.
The test system of series [14] is MCF7. In words: Induction of cell death in human MCF7 cells assessed as reduction in Bcl-2 protein expression measured after 48 hrs by immunoblot analysis. The class given is functional, cell-based. To be noted: dose 1.7-15 µM.
Series [15] addresses T1, Cytochrome P450 7B1. In words: Binding affinity to recombinant human CYP7B1 by spectrophotometric titration method. The class given is ADME. To be noted: recombinant enzyme.
Series [16] has as its system MCF7. The experiment in a line: Anti-estrogenic activity in human MCF7 cells assessed as reduction in ERalpha protein expression at 1.7 to 15 uM measured after 48 hrs by immunoblot analysis. The class given is functional, cell-based. To be noted: dose 1.7-15 µM.
Series [17] concerns MCF7. In words: Induction of cell death in human MCF7 cells assessed as accumulation of cleaved PARP level at 1.7 to 15 uM measured after 48 hrs by immunoblot analysis. The class given is functional, cell-based. To be noted: dose 1.7-15 µM.
Series [18] has as its system MCF7. The experiment in a line: Anti-estrogenic activity in human MCF7 cells assessed as reduction in GREB1 protein expression at 1.7 to 15 uM measured after 48 hrs by immunoblot analysis. The class given is functional, cell-based. To be noted: dose 1.7-15 µM.
Series [19] relates to MCF7. In words: Anti-estrogenic activity in human MCF7 cells transfected with luciferase gene under control of estrogen response elements cotransfected with beta-galactosidase assessed as reduction in 17beta-estradiol induced ERalpha protein expression by measuring reduction in luciferase activity measured after 24 hrs. To be noted: dose 1.7-20 µM. The class given is functional, cell-based.

The target of series [20] is T5, Steroid 21-hydroxylase (Homo sapiens, UniProt P08686).
T5 sequence (P08686 whole entry): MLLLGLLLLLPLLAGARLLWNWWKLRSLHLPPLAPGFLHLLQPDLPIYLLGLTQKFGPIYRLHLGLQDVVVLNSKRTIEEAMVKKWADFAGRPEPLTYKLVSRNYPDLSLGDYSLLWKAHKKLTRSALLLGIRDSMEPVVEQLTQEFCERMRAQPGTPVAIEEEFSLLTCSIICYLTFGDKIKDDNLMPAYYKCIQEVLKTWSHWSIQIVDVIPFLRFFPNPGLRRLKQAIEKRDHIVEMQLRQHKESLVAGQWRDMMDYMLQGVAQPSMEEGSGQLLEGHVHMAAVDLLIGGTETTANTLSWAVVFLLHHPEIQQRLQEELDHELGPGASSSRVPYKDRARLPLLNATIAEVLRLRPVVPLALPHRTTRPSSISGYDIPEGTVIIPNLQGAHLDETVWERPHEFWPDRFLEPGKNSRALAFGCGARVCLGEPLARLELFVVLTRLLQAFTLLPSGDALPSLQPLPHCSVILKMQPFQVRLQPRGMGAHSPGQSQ
The experiment in a line: Binding affinity to recombinant human CYP21A2 by spectrophotometric titration method. The class given is ADME. To be noted: recombinant enzyme.

For series [21], the system named is MCF7. In words: Downregulation of cyclin D1 protein expression in human MCF7 cells at 1.7 to 15 uM measured after 48 hrs by immunoblot analysis. The series is classed as functional, cell-based. To be noted: dose 1.7-15 µM.
The target in series [22] is T2, Cytochrome P450 7A1. The experiment in a line: Binding affinity to recombinant human CYP7A1 by spectrophotometric titration method. The class given is ADME. To be noted: recombinant enzyme.
For series [23], the system named is MCF7. The experiment in a line: Effect on activated AKT protein level in human MCF7 cells at 1.7 to 15 uM measured after 48 hrs by immunoblot analysis. To be noted: dose 1.7-15 µM. The series is classed as functional, cell-based.
Series [24] is described as follows: Cytotoxicity against human THP-1 cells assessed as inhibition of cell growth incubated for 72 hrs by MTT assay. The series is classed as toxicity, cell-based.

A word on the IC50: it is the point on the concentration scale where inhibition reaches its midpoint. Take `COc1ccc(NC(=O)c2nncc3c2[C@@]2(C)CC[C@H]4[C@@H](CC=C5C[C@@H](OC(C)=O)CC[C@@]54C)[C@@H]2C3)cc1`: in [1], the IC50 came to 12.5 µM.
Turning to `CC(=O)O[C@H]1CC[C@@]2(C)C(=CC[C@@H]3[C@@H]2CC[C@]2(C)c4c(cnnc4C(=O)Nc4ccc(C(F)(F)F)cc4)C[C@@H]32)C1`, the concentration for half-maximal inhibition (IC50) in [2] turned out to be 4.9 µM.
A word on the Kd: it is the equilibrium constant for the complex coming apart. Turning to `CC(C)(C)NP(=O)(NC(C)(C)C)c1nncc2c1CC1CC[C@H]3[C@@H]4CC[C@H](O)[C@@]4(C)CC[C@@H]3[C@@]1(C)C2` (stereo partly specified), the Kd was determined as 1.7 µM in series [3] and 2.1 µM in series [6]. Also, the IC50 in [4] was 22.1 µM; in series [5] it was over 25 µM.
With `C[C@]12CCC(=O)C=C1CC[C@@H]1[C@@H]2CC[C@]2(C)c3c(cnnc3P(=O)(Nc3ccccc3)Nc3ccccc3)C[C@@H]12`, the outcome in series [7], in series [10], in series [11], in series [16], in [17] and in series [18] was Active. Also, the outcome in [21] was Active. The Activity entry in series [8] is “Not Active”; in [12], “Not Active”; in series [14], “Dose-Dependent Effect”; in series [15], “Not Active”; in series [19], “Dose-Dependent Effect”; in [20] it was “Not Active”. For the same compound, the Activity result in [22] is given as “Not Active”. Besides, the result in series [9] and in [23] was inactive. Moreover, the “Ratio IC50” value in series [13] is over 8.5. Moreover, the figures for the IC50 in series [4] and in series [5] were 5.9 µM and 22 µM, respectively. In addition, the IC50 at 72 h in series [24] is over 50 µM.
